From ChEMBL document CHEMBL4420062, “Tfpi inhibitors and methods of use” (2013) come the findings set out here.

A short description of this data set: Stability in human plasma assessed as parent compound remaining after 24 hrs. Format: ADME, cell-free. As to conditions: read-out: Stability.
Consider `CC(C)C[C@@H]1NC(=O)[C@H](CCCCN)NC(=O)[C@H](C)NC(=O)C(C)(C)NC(=O)[C@H](CC(C)C)NC(=O)[C@H](CCCNC(=N)N)NC(=O)[C@H](CCC(=O)O)NC(=O)[C@H](Cc2ccccc2)NC(=O)[C@H](Cc2ccc(O)cc2)NC(=O)CNC(=O)[C@H](CC(=O)O)NC(=O)[C@H](C(C)C)NC(=O)[C@H](Cc2cnc[nH]2)NC(=O)[C@H](C(C)C)NC(=O)[C@H](CC(N)=O)NC(=O)[C@H]2CCCN2C(=O)[C@H](CCCCN)NC(=O)[C@H](CO)NC(=O)[C@H](CCC(N)=O)NC(=O)[C@H](Cc2ccccc2)NC(=O)CCOCCOCCOCCOCCNC1=O`, for which the remaining at 24 h amounted to 55.9%.
`CCN1C(=O)CC(SC[C@H](NC(=O)[C@H](CC(C)C)NC(=O)[C@H](CCCCN)NC(=O)[C@H](C)NC(=O)C(C)(C)NC(=O)[C@H](CC(C)C)NC(=O)[C@H](CCCNC(=N)N)NC(=O)[C@H](CCC(=O)O)NC(=O)[C@H](Cc2ccccc2)NC(=O)[C@H](Cc2ccc(O)cc2)NC(=O)CNC(=O)[C@@H](NC(=O)[C@@H](NC(=O)[C@H](Cc2cnc[nH]2)NC(=O)[C@@H](NC(=O)[C@H](CC(N)=O)NC(=O)[C@H]2CCCN2C(=O)[C@H](CCCCN)NC(=O)[C@H](CO)NC(=O)[C@H](CCC(N)=O)NC(=O)[C@H](Cc2ccccc2)NC(C)=O)C(C)C)C(C)C)[C@@H](C)O)C(N)=O)C1=O` (stereo partly specified): the remaining at 24 h was 41.4%.
To `CCN1C(=O)CC(SC[C@H](NC(=O)[C@H](CC(C)C)NC(=O)[C@H](CCCCN)NC(=O)[C@H](C)NC(=O)C(C)(C)NC(=O)[C@H](CC(C)C)NC(=O)[C@H](CCCNC(=N)N)NC(=O)[C@H](CCC(=O)O)NC(=O)[C@H](Cc2ccccc2)NC(=O)[C@H](Cc2ccc(O)cc2)NC(=O)[C@H](C)NC(=O)[C@H](CC(=O)O)NC(=O)[C@@H](NC(=O)[C@H](Cc2cnc[nH]2)NC(=O)[C@@H](NC(=O)[C@H](CC(N)=O)NC(=O)[C@H]2CCCN2C(=O)[C@H](CCCCN)NC(=O)[C@H](CO)NC(=O)[C@H](CCC(N)=O)NC(=O)[C@H](Cc2ccccc2)NC(C)=O)C(C)C)C(C)C)C(N)=O)C1=O` (stereo partly specified) belongs 17.9%; to `CCN1C(=O)CC(SC[C@H](NC(=O)[C@H](CC(C)C)NC(=O)[C@H](CCCCN)NC(=O)[C@H](C)NC(=O)C(C)(C)NC(=O)[C@H](CC(C)C)NC(=O)[C@H](CCCNC(=N)N)NC(=O)[C@H](CCC(=O)O)NC(=O)[C@H](Cc2ccccc2)NC(=O)[C@H](Cc2ccc(O)cc2)NC(=O)CNC(=O)[C@H](CC(=O)O)N(C)C(=O)[C@@H](NC(=O)[C@H](Cc2cnc[nH]2)NC(=O)[C@@H](NC(=O)[C@H](CC(N)=O)NC(=O)[C@H]2CCCN2C(=O)[C@H](CCCCN)NC(=O)[C@H](CO)NC(=O)[C@H](CCC(N)=O)NC(=O)[C@H](Cc2ccccc2)NC(C)=O)C(C)C)C(C)C)C(N)=O)C1=O` (stereo partly specified), 46.5%.
Regarding `CCN1C(=O)CC(SC[C@H](NC(=O)[C@H](CC(C)C)NC(=O)[C@H](CCCCN)NC(=O)[C@H](C)NC(=O)C(C)(C)NC(=O)[C@H](CC(C)C)NC(=O)[C@H](CCCNC(=N)N)NC(=O)[C@H](CCC(=O)O)NC(=O)[C@H](Cc2ccccc2)NC(=O)[C@H](Cc2ccc(O)cc2)NC(=O)CNC(=O)[C@@H](CC(=O)O)NC(=O)[C@@H](NC(=O)[C@H](Cc2cnc[nH]2)NC(=O)[C@@H](NC(=O)[C@H](CS)NC(=O)[C@H]2CCCN2C(=O)[C@H](CCCCN)NC(=O)[C@H](CO)NC(=O)[C@H](CCC(N)=O)NC(=O)[C@H](Cc2ccccc2)NC(C)=O)C(C)C)C(C)C)C(N)=O)C1=O` (stereo partly specified), the remaining at 24 h amounted to 70.9%.
Turning to `CCCCCC(=O)N[C@@H](Cc1ccccc1)C(=O)N[C@@H](CCC(N)=O)C(=O)N[C@@H](CO)C(=O)N[C@@H](CCCCN)C(=O)N1CCC[C@@H]1C(=O)N[C@@H](CSCNC(C)=O)C(=O)N[C@H](C(=O)N[C@@H](Cc1cnc[nH]1)C(=O)N[C@H](C(=O)N[C@@H](CC(=O)O)C(=O)N[C@H](C)C(=O)N[C@@H](Cc1ccc(O)cc1)C(=O)N[C@@H](Cc1ccccc1)C(=O)N[C@@H](CCC(=O)O)C(=O)N[C@@H](CCCNC(=N)N)C(=O)N[C@@H](CC(C)C)C(=O)NC(C)(C)C(=O)N[C@@H](C)C(=O)N[C@@H](CCCCN)C(=O)N[C@@H](CC(C)C)C(=O)N[C@@H](CSC1CC(=O)N(CC)C1=O)C(=O)O)C(C)(C)C)C(C)C` (stereo partly specified), the remaining at 24 h turned out to be 107%.
Next, `CCN1C(=O)CC(SC[C@H](NC(=O)[C@H](CC(C)C)NC(=O)[C@H](CCCCN)NC(=O)[C@H](C)NC(=O)C(C)(C)NC(=O)[C@H](CC(C)C)NC(=O)[C@H](CCCNC(=N)N)NC(=O)[C@H](CCC(=O)O)NC(=O)[C@H](Cc2ccccc2)NC(=O)[C@H](Cc2ccc(O)cc2)NC(=O)CNC(=O)[C@H](CC(=O)O)NC(=O)[C@@H](NC(=O)[C@H](Cc2cnc[nH]2)NC(=O)[C@@H](NC(=O)[C@H](CC(N)=O)NC(=O)[C@H]2CCCN2C(=O)[C@H](CCCCN)NC(=O)[C@H](CO)NC(=O)[C@H](CCC(N)=O)NC(=O)[C@H](Cc2ccccc2)NC(C)=O)C(C)C)C(C)(C)C)C(N)=O)C1=O` (stereo partly specified): 52%.
To `CCN1C(=O)CC(SC[C@H](NC(=O)[C@H](CC(C)C)NC(=O)[C@H](CCCCN)NC(=O)[C@H](C)NC(=O)C(C)(C)NC(=O)[C@H](CC(C)C)NC(=O)[C@H](CCCNC(=N)N)NC(=O)[C@H](CCC(=O)O)NC(=O)[C@H](Cc2ccccc2)NC(=O)[C@H](Cc2ccc(O)cc2)NC(=O)CNC(=O)[C@@H]2CCCN2C(=O)[C@@H](NC(=O)[C@H](Cc2cnc[nH]2)NC(=O)[C@@H](NC(=O)[C@H](CC(N)=O)NC(=O)[C@H]2CCCN2C(=O)[C@H](CCCCN)NC(=O)[C@H](CO)NC(=O)[C@H](CCC(N)=O)NC(=O)[C@H](Cc2ccccc2)NC(C)=O)C(C)C)C(C)C)C(N)=O)C1=O` (stereo partly specified) belongs 58%.
Next, `CC(=O)N[C@@H](Cc1ccccc1)C(=O)N[C@@H](CCC(N)=O)C(=O)N[C@@H](CO)C(=O)N[C@@H](CCCCN)C(=O)N(CCCN)CC(=O)N[C@@H](CC(N)=O)C(=O)N[C@H](C(=O)N[C@@H](Cc1cnc[nH]1)C(=O)N[C@H](C(=O)N[C@@H](CC(=O)O)C(=O)NCC(=O)N[C@@H](Cc1ccc(O)cc1)C(=O)N[C@@H](Cc1ccccc1)C(=O)N[C@@H](CCC(=O)O)C(=O)N[C@@H](CCCNC(=N)N)C(=O)N[C@@H](CC(C)C)C(=O)NC(C)(C)C(=O)N[C@@H](C)C(=O)N[C@@H](CCCCN)C(=O)N[C@@H](CC(C)C)C(N)=O)C(C)C)C(C)C`: 46.7%.
In the case of `CC(=O)N[C@@H](Cc1ccccc1)C(=O)N[C@@H](CCC(N)=O)C(=O)N[C@@H](CO)C(=O)N[C@@H](CCCCN)C(=O)N1CCC[C@@H]1C(=O)N[C@@H](CC(N)=O)C(=O)N[C@H](C(=O)N[C@@H](Cc1cnc[nH]1)C(=O)N[C@H](C(=O)N1CCC[C@H]1C(=O)NCC(=O)N[C@@H](Cc1ccc(O)cc1)C(=O)N[C@@H](Cc1ccccc1)C(=O)N[C@@H](CCC(=O)O)C(=O)N[C@@H](CCCNC(=N)N)C(=O)N[C@@H](CC(C)C)C(=O)NC(C)(C)C(=O)N[C@@H](C)C(=O)N[C@@H](CCCCN)C(=O)N[C@@H](CC(C)C)C(N)=O)C(C)C)C(C)C`, the remaining at 24 h is 76.3%.
Take `CC(C)C[C@H](NC(=O)[C@H](CCCCN)NC(=O)[C@H](C)NC(=O)C(C)(C)NC(=O)[C@H](CC(C)C)NC(=O)[C@H](CCCNC(=N)N)NC(=O)[C@H](CCC(=O)O)NC(=O)[C@H](Cc1ccccc1)NC(=O)[C@H](Cc1ccc(O)cc1)NC(=O)[C@@H](C)NC(=O)[C@H](CC(=O)O)NC(=O)[C@@H](NC(=O)[C@H](Cc1cnc[nH]1)NC(=O)[C@@H](NC(=O)[C@H](CC(N)=O)NC(=O)[C@H]1CCCN1C(=O)[C@H](CCCCN)NC(=O)[C@H](CO)NC(=O)[C@H](CCC(N)=O)NC(=O)[C@H](Cc1ccccc1)NC(=O)Cc1ccc2ccccc2c1)C(C)C)C(C)(C)C)C(N)=O`: the remaining at 24 h was 108%.
